# In PubChem BioAssay (NCI):
#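 Five compound concentrations were applied to cells in 96-well plates for 48 hours; endpoints were derived by simple linear interpolation of the resulting dose-response curve. TGI: concentration producing complete growth inhibition.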
# Tests used:
# Assay in all cases: NCI-60 cell line screen, 48 h
# DMS 114 small cell lung = test system: DMS 114 small cell lung
# SNB-78 CNS = test system: SNB-78 CNS
# KM20L2 colon = test system: KM20L2 colon
# DU-145 prostate = test system: DU-145 prostate
# DLD-1 colon = test system: DLD-1 colon
# MCF7 breast = test system: MCF7 breast
# DMS 273 small cell lung = test system: DMS 273 small cell lung
# HS 578T breast = test system: HS 578T breast
# LXFL 529 NSCLC = test system: LXFL 529 NSCLC
# XF 498 CNS = test system: XF 498 CNS
# NCI/ADR-RES ovarian = test system: NCI/ADR-RES ovarian
Compound,TGI (DMS 114 small cell lung) [µM],TGI (SNB-78 CNS) [µM],TGI (KM20L2 colon) [µM],TGI (DU-145 prostate) [µM],TGI (DLD-1 colon) [µM],TGI (MCF7 breast) [µM],TGI (DMS 273 small cell lung) [µM],TGI (HS 578T breast) [µM],TGI (LXFL 529 NSCLC) [µM],TGI (XF 498 CNS) [µM],TGI (NCI/ADR-RES ovarian) [µM]
C[N+](C)(C)CC1CCC(C[N+](C)(C)C)C1=O (configuration not stated),6.74,5.26,9.78,30.5,> 100,6.05,6.37,91.5,1.57,3.74,–
COC(=O)CCC(=O)N1C/C(=C\c2ccccc2)C(=O)/C(=C/c2ccccc2)C1,3.56,7.83,3.82,–,10.9,–,2.73,–,4.13,19.2,–
COc1ccc2c3c([nH]c(=O)c2c1C(=O)O)-c1ccccc1CC3,> 100,> 100,> 100,–,> 100,–,> 100,–,> 100,> 100,–
CC(C)c1ccc(C2NC(=S)NC3=C2c2ccccc2C3=O)cc1 (configuration not stated),58.8,–,64.5,31.7,> 100,23.1,> 100,42.1,> 100,> 100,33.3
CC1=CC(C)(c2c[nH]c3ccccc23)CC(C)(C)c2c1[nH]c1ccccc21 (configuration not stated),36.5,> 100,31.4,–,27.2,–,–,–,> 100,72.1,–
C1OC1CN1CCN(CC2CO2)CC1 (configuration not stated),> 100,> 100,> 100,–,> 100,–,> 100,–,> 100,> 100,–
O=C(O)[C@@H]1OCCOCCO[C@@H](C(=O)O)[C@H](C(=O)O)OCCOCCO[C@H]1C(=O)O,> 92.3,> 100,> 100,–,> 61.8,–,> 100,–,> 100,> 100,–
CCCCCCCCOCC(O)CO (configuration not stated),> 100,> 100,> 100,–,> 100,–,> 100,–,> 100,> 100,–
Cc1cccc(C)c1NC(=O)CCc1nnc2s/c(=C\c3ccc(N(C)C)cc3)c(=O)n12,> 100,> 100,> 100,–,> 100,–,> 100,–,> 100,> 100,–
C[P+](C)(C)C,> 100,> 100,> 100,–,> 100,–,–,–,> 100,> 100,–
C/C(=N\NC(N)=S)c1ccc(C)c(C)c1,38.3,> 100,> 100,–,> 100,–,> 100,–,> 100,48.1,–
CCOC(=O)C1C=C2O[C@@H]3OC4(CCCCC4)O[C@@H]3C2C2C(=O)CCC(=O)[C@@]12C(=O)OC (some centres not stated),> 100,> 100,> 100,–,> 100,–,> 100,–,> 100,> 100,–
O=[P+](O)c1ccccn1,> 100,> 100,> 100,–,> 100,–,> 100,–,> 100,> 100,–
Cc1cccc(C)c1NC(=O)CCC/C(CC(=O)c1ccc(F)cc1)=N\NC(=O)C(=O)NN,> 100,> 100,> 100,–,> 100,–,> 100,–,> 100,> 100,–
